Source: US20250295815A1, “PORPHYRIN-HYDROPORPHYRIN COMPOUNDS, COMPOSITIONS COMPRISING THE SAME AND METHODS OF USE THEREOF” (North Carolina State University, priority 2021, published 2025)

Experiments:
Type in all cases: physicochemical
[1] = Dyad photophysical properties in toluene, excited at 405 nm; set-up: ext coeff (abs max B) / brightness (abs max): unit not given here; details: for ext coeff (405 nm) / brightness (405 nm): at 405 nm; for ext coeff (405 nm) / FWHM / QY (x405) / abs max B / abs max Qx / abs max Qy / ext coeff (abs max B) / em max: room temperature; for ext coeff (405 nm): in M-1 cm-1 (unit assumed); for FWHM: emission peak; for FWHM / QY (x405) / em max: excited at 405 nm; for QY (x405): fluorescence quantum yield; for brightness (405 nm) / brightness (abs max): molar absorption coefficient x fluorescence quantum yield; for brightness (405 nm): in M⁻¹cm⁻¹; for brightness (abs max): at abs max
Experimental: (§1) The photophysical properties of samples were tested in toluene at room temperature and excited at 405 nm.

[2] = Brightness of hydroporphyrin monomers vs. porphyrin-hydroporphyrin dyads at 405 nm excitation; details: for fold change: brightness of dyad vs. corresponding hydroporphyrin monomer, 405 nm; for FWHM: emission peak narrowness; for QY (x405): fluorescence quantum yield in toluene at room temperature; for ext coeff (405 nm): molar absorption coefficient at 405 nm, in M-1 cm-1 (unit assumed); for brightness (405 nm): product of molar absorption coefficient at 405 nm and fluorescence quantum yield, in M⁻¹cm⁻¹; for brightness (405 nm) / abs max B / em max: toluene, room temperature
Experimental: Brightness was calculated using an excitation wavelength of 405 nm for a hydroporphyrin monomer having an emission wavelength of approximately 660, 680, 715, or 800 nm and for a fluorescent compound including a porphyrin and a hydroporphyrin structurally similar to the hydroporphyrin monomer. Brightness was calculated as the product of the molar absorption coefficient at 405 nm and the fluorescence quantum yield in toluene at room temperature. Table 3 provides the emission wavelength of the hydroporphyrin monomer and the corresponding dyad, the brightness of the hydroporphyrin monomer excited at 405 nm, the brightness of the dyad excited at 405 nm, and the fold change in brightness of the hydroporphyrin monomer compared to the brightness of the dyad.

[3] = Comparison porphyrin photophysical properties in toluene, excited at 405 nm; details: for ext coeff (405 nm) / brightness (405 nm): at 405 nm; for ext coeff (405 nm) / QY (x405) / abs max B / abs max Qx / em max / ext coeff (abs): room temperature; for ext coeff (405 nm) / ext coeff (abs): in M-1 cm-1 (unit assumed); for QY (x405): fluorescence quantum yield; for QY (x405) / em max: excited at 405 nm; for brightness (405 nm) / brightness (abs max): molar absorption coefficient x fluorescence quantum yield; for brightness (405 nm): in M⁻¹cm⁻¹; for brightness (abs max): at abs max
Experimental: as §1

Row | Compound | ext coeff (405 nm) [1] | FWHM [1] | QY (x405) [1] | brightness (405 nm) [1] | brightness (abs max) [1] | abs max B [1] | abs max Qx [1] | abs max Qy [1] | ext coeff (abs max B) [1] | em max [1] | further results
1 | COC(=O)c1ccc(C#Cc2cc3cc4nc(cc5[nH]c(cc6nc(c(OC)c2[nH]3)CC6(C)C)cc5C#Cc2ccc(-c3c5nc(cc6ccc(cc7nc(cc8ccc3[nH]8)C=C7)[nH]6)C=C5)cc2)CC4(C)C)cc1 [Dyad P1-BC1] | 276,800 | 21 nm | 0.23 | 64,405 | 64,405 | 405 nm | 529 nm | 760 nm | 276,800 | 765 nm | 
2 | COC(=O)c1c(C#Cc2ccc(-c3c4nc(cc5ccc(cc6nc(cc7ccc3[nH]7)C=C6)[nH]5)C=C4)cc2)c2cc3nc(c(OC)c4[nH]c(cc5nc(cc1[nH]2)CC5(C)C)c(C#Cc1ccc(-c2c5nc(cc6ccc(cc7nc(cc8ccc2[nH]8)C=C7)[nH]6)C=C5)cc1)c4C(=O)OC)CC3(C)C [Dyad P1-BC2] | 325,400 | 31 nm | 0.19 | 60,845 | 60,845 | 405 nm | 499 nm | 795 nm | 325,400 | 804 nm | fold change [2]: 18.6; FWHM [2]: 31 nm; QY (x405) [2]: 0.19; ext coeff (405 nm) [2]: 325,400; brightness (405 nm) [2]: 60,845; abs max B [2]: 405 nm; em max [2]: 804 nm
3 | COC(=O)c1ccc(-c2c3nc(cc4[nH]c(cc5nc(cc6[nH]c2cc6C#Cc2ccc(-c6c7nc(cc8ccc(cc9nc(cc%10ccc6[nH]%10)C=C9)[nH]8)C=C7)cc2)CC5(C)C)cc4C#Cc2ccc(-c4c5nc(cc6ccc(cc7nc(cc8ccc4[nH]8)C=C7)[nH]6)C=C5)cc2)C=C3)cc1 [Dyad P1-C6] | 238,800 | 17 nm | 0.34 | 80,567 | 81,579 | 406 nm | 499 nm | 680 nm | 241,800 | 682 nm | fold change [2]: 6.4; FWHM [2]: 17 nm; QY (x405) [2]: 0.34; ext coeff (405 nm) [2]: 238,800; brightness (405 nm) [2]: 80,567; abs max B [2]: 406 nm; em max [2]: 682 nm
4 | CC1(C)OB(c2ccc(CNC(=O)c3ccc(C4=C5C=CC(=N5)C=c5ccc6[n]5[Zn][n]5c(ccc54)C=C4C=CC(=N4)C=6)cc3)cc2)OC1(C)C [Dyad P2] |  |  |  |  |  |  |  |  |  |  | ext coeff (405 nm) [3]: 209,100; QY (x405) [3]: 0.03; brightness (405 nm) [3]: 5,899; brightness (abs max) [3]: 6,466; abs max B [3]: 407 nm; abs max Qx [3]: 533 nm; em max [3]: 623 nm; ext coeff (abs) [3]: 229,200
5 | Cc1cc(C)c(-c2c3nc(cc4ccc([nH]4)c(-c4ccc(C(=O)NCc5ccc(B6OC(C)(C)C(C)(C)O6)cc5)cc4)c4nc(cc5ccc2[nH]5)C=C4)C=C3)c(C)c1 [Dyad P3] |  |  |  |  |  |  |  |  |  |  | ext coeff (405 nm) [3]: 234,100; QY (x405) [3]: 0.04; brightness (405 nm) [3]: 9,628; brightness (abs max) [3]: 12,560; abs max B [3]: 409 nm; abs max Qx [3]: 503 nm; em max [3]: 702 nm; ext coeff (abs) [3]: 305,400
6 | COC(=O)c1ccc(-c2c3nc(cc4ccc(cc5nc(cc6[nH]c2cc6C#Cc2ccc(CNC(=O)c6ccc(C7=C8C=CC(=N8)C=c8ccc9[n]8[Zn][n]8c(ccc87)C=C7C=CC(=N7)C=9)cc6)cc2)CC5(C)C)[nH]4)C=C3)cc1 [Dyad P4-C3] | 318,900 |  | 0.07 | 22,648 | 23,813 | 407 nm | 532 nm | 656 nm | 335,300 | 659 nm | 
7 | COC(=O)c1ccc(-c2c(C(=O)OC)c3cc4nc(cc5[nH]c(c(OC)c6nc(cc2[nH]3)C(C)(C)C6)c(C(=O)OC)c5C#Cc2ccc(C3=C5C=CC(=N5)C=c5ccc6[n]5[Zn][n]5c(ccc53)C=C3C=CC(=N3)C=6)cc2)C(C)(C)C4)cc1 [Dyad P8-BC2] | 227,600 | 29 nm | 0.20 | 46,569 | 52,298 | 408 nm | 538 nm | 769 nm | 255,600 | 777 nm | 
8 | COC(=O)c1ccc(-c2c3nc(cc4[nH]c(cc5nc(cc6[nH]c2cc6-c2ccc(CNC(=O)c6ccc(C7=C8C=CC(=N8)C=c8ccc9[n]8[Zn][n]8c(ccc87)C=C7C=CC(=N7)C=9)cc6)cc2)CC5(C)C)cc4-c2ccccc2)C=C3)cc1 [P2-C1, methyl ester] | 346,400 | 18 nm | 0.25 | 87,748 | 94,791 | 407 nm | 533 nm | 652 nm | 374,100 | 656 nm | fold change [2]: 2.5; FWHM [2]: 18 nm; QY (x405) [2]: 0.25; ext coeff (405 nm) [2]: 346,400; brightness (405 nm) [2]: 87,748; abs max B [2]: 407 nm; em max [2]: 656 nm
9 | COC(=O)c1ccc(-c2c3nc(cc4ccc(cc5nc(cc6[nH]c2cc6C#Cc2ccc(-c6c7nc(cc8ccc([nH]8)c(-c8c(C)cc(C)cc8C)c8nc(cc9ccc6[nH]9)C=C8)C=C7)cc2)CC5(C)C)[nH]4)C=C3)cc1 [P7-C1; P6-C3] | 227,900 | 15 nm | 0.21 | 47,083 | 60,532 | 410 nm | 505 nm | 659 nm | 293,000 | 660 nm | 
10 | COC(=O)c1ccc(-c2c3nc(cc4ccc(cc5nc(cc6[nH]c2cc6C#Cc2ccc(C6=C7C=CC(=N7)C=c7ccc8[n]7[Zn][n]7c(ccc76)C=C6C=CC(=N6)C=8)cc2)CC5(C)C)[nH]4)C=C3)cc1 [P8-C2, methyl ester] | 241,700 | 15 nm | 0.33 | 80,872 | 88,133 | 408 nm | 534 nm | 659 nm | 263,400 | 661 nm | 
11 | COC(=O)c1ccc(C2=c3ccc4[n]3[Zn][n]3c(ccc3C(c3ccc(C#Cc5ccc(C6=c7ccc8[n]7[Zn][n]7c(ccc7C=C7N=C(C=8)CC7(C)C)C=C7C=CC6=N7)cc5)cc3)=C3C=CC(=N3)C=4)C=C3C=CC2=N3)cc1 [P9-C4, methyl ester] | 181,500 | 14 nm | 0.04 | 8,055 | 11,570 | 414 nm | 540 nm | 607 nm | 260,700 | 608 nm | 
